Values after ≈ are worked out from the molar mass of the structure shown. Where two headings read alike, the source gives them in different places.
Key:
[1] = Solubility of compound (1) in ethanol/water (2:1); type: physicochemical; conditions: 40° C., stirred one hour, listed as V (form A)
Method: Samples of compound (1) (5 g) were suspended in ethanol/water (2:1, 100 mL) and stirred for one hour at temperatures of 22° C., 30° C., and 40° C., respectively. The suspensions were filtered and the solids dried in a vacuum oven at room temperature overnight to give the insoluble material. The solubilities were calculated by subtractive means based on recovered material.

[2] = Solubility compared to other polymorphs (solvent not given); type: physicochemical
[3] = test system: asthma and allergic diseases; assay: Oral activity for treatment of asthma and allergic diseases; type: in vivo

Structure (SMILES)	Solubility [1]	solubility compared to other crystalline forms [2]	solubility compared to other crystalline forms ([2]; listed as form A)	oral activity for treatment of asthma and allergic diseases [3]
CCCc1c(SCCCOc2ccc(C(C)=O)c(OCCCC(=O)O)c2CCC)ccc(C(C)=O)c1O [Form V, 4-[6-acetyl-3-[3-(4-acetyl-3-hydroxy-2-propylphenylthio)propoxy]-2-propylphenoxy]butyric acid]	46 mg/mL (≈ 86.7 mM)	superior	high	–
CCCc1c(SCCCOc2ccc(C(C)=O)c(OCCCC(=O)O)c2CCC)ccc(C(C)=O)c1O [compound (1), 4-[6-acetyl-3-[3-(4-acetyl-3-hydroxy-2-propylphenylthio)propoxy]-2-propylphenoxy]butyric acid]	–	–	–	orally active

— patent US7728169B2, “Pharmaceutical compositions of isolated orthorhombic crystalline 4-[6-acetyl-3-[3-(4-acetyl-3-hydroxy-2-propylphenylthio)propoxy]-2-propylphenoxy]butyric acid and methods of use” (Medicinova, Inc., priority 2003, dated 2010)
